# Measured values: patent publication US7060733B2, “Methods for treating pancreatitis with curcumin compounds and inhibitors of reactive oxygen species” (The Regents of the University of California, priority 2002, dated 2006)
# Entries after “also recorded” stand apart in the source; their conditions may differ.
# Experiments:
# NF-κB [1] = test: Curcumin and N-acetylcysteine alone and in combination, NF-κB activation in CCK-stimulated acinar cells; type: cell-based, rat; conditions: curcumin 50 μM alone, 0.1 μM CCK
# Experimental: To measure the effects of curcumin compounds and ROS inhibitors, EMSAs and nuclear protein extractions were conducted as provided above. […] EMSAs for NF-κB activation were performed on nuclear proteins extracted from each sample.
# AP-1 [2] = test: CCK-induced AP-1 activation in isolated pancreatic acinar cells (EMSA); type: cell-based, rat
# Experimental: To confirm that the effects of curcumin occur in the pancreatic acinar cell, the effects of curcumin on the activation of NF-κB and AP-1 in vitro in CCK-stimulated pancreatic acini. Pancreatic acini were prepared from rat pancreas using the collagenase digestion method as described by Pandol S J, et al. (1982) J. Biol. Chem. 257:12024–12029, which is herein incorporated by reference, and then incubated at 37° C. in 199 medium (GIBCO, Rockville, Md.) known in the art. […] EMSAs for NF-κB and AP-1 were performed on nuclear proteins extracted from each sample as provided above. Nuclear protein extracts were prepared by methods known in the art. […] Briefly, samples of pancreatic tissue or isolated acini were rinsed in ice-cold PBS and homogenized in hypotonic Buffer A (20 mM β-glycerophosphate, 10 mM HEPES, pH 7.6, 1.5 mM MgCl2, 10 mM KCl, 10 mM Na2MoO4, 0.1 mM Na3VO4, 1 mM dithiothreitol (DTT), 1 mM phenylmethylsulfonyl fluoride (PMSF), 5 μg/ml each of protease inhibitors pepstatin, leupeptin, chymostatin, antipain and aprotinin). After incubating on ice for about 20 to about 25 minutes, the nonionic detergent Igepal CA-630 (Sigma, St. Louis, Mo.) was added to a final concentration of 0.3 to 0.4% (v/v), followed by an additional incubation on ice for about 1 to about 2 minutes. The crude nuclear pellet was collected by microcentrifugation for 30 seconds. The supernatant (cytosolic protein) was removed, and the nuclear pellet was resuspended in the high-salt buffer C (25% glycerol, 20 mM β-glycerophosphate, 10 mM HEPES, 1.5 mM MgCl2, 420 mM NaCl, 0.2 mM EDTA, 10 mM Na2MoO4, 0.1 mM Na3VO4, 1 mM DTT, 1 mM PMSF, 5 μg/ml each of protease inhibitors pepstatin, leupeptin, chymostatin, antipain and aprotinin. After rotating at 4° C. for up to 1 hour, nuclear membranes were pelleted by microcentrifugation for 10 minutes, and the clear supernatant (nuclear extract) was aliquoted and stored at −80° C. Protein concentration in the nuclear extract was determined by the Bio-Rad protein assay (Bio-Rad Laboratories, Hercules, Calif.).
# [3] = system: neutrophil infiltration of pancreatic tissue; test: Neutrophil infiltration assay of pancreatic tissue; type: in vivo; conditions: rat
# Experimental: Neutrophil infiltration of pancreatic tissue was examined using methods known in the art. See Gukovskaya A S, et al. (1997); Gukovskaya A S, et al. (2002); Pandol S J, et al. (1999); Sandoval D, et al. (1996); and Vaquero E, et al. (2001). The pancreas was cut into about 2 to about 3 mm pieces and fixed in 4% paraformaldehyde for 2 hours. The tissue was then frozen in liquid nitrogen. 8-μm-thick serial cryostat sections of pancreatic tissue from control samples and test samples from Examples 1 and 2 were cut and mounted on glass slides. The slides were placed in phosphate buffered saline (PBS) for 5 minutes. This was repeated twice. Then the slides were transferred into blocking buffer (PBS containing 5% (wt/vol) goat serum, 0.5% bovine serum albumin (wt/vol) and 0.1% gelatin(wt/vol) for 1 hour at room temperature. Then the slides incubated with FITC-conjugated rabbit anti-rat neutrophil antibody (Accurate, Westbury, N.Y.) (diluted 1:120 in the blocking buffer) for 3 hours at room temperature. The slides were the transferred into the blocking buffer, incubated for 5 minutes, and repeated 4 times. Finally, coverslips were mounted over the tissue samples on the slide with the addition of anti-fading medium. The number of infiltrating neutrophils was obtained by counting the neutrophils at 40× magnification in an average of 50 fields covering at least about 1,000 acinar cells. For each sample, neutrophil numbers were expressed as a percentage of acinar cells.
# AP-1 [4] = test: EMSA for AP-1 on nuclear extracts from pancreatic tissue; type: in vivo; conditions: rat
# Experimental: Specifically, aliquots of nuclear extracts with equal amounts of protein (about 2 to about 10 mg) were mixed in 20 μl reactions with a buffer containing 10 mM HEPES (pH 7.8), 50 mM KCl, 0.1 mM EDTA, 1 mM DTT, 10% (vol/vol) glycerol, and 3 μg of poly(dI-dC). Binding reactions were started by the addition of c. 60,000 cpm of ^32P-labeled DNA probe and allowed to proceed for about 20 to about 25 minutes at room temperature. The oligonucleotide probe for NF-κB:
# 5′-[sequence] (SEQ ID NO: 2), containing phorbol ester responsive element (TRE, underlined), were annealed with their complementary strands and end-labeled using Klenow DNA polymerase I (Stratagene, La Jolla, Calif.).
# (§1) The samples were electrophoresed at room temperature in 0.5×TBE buffer (1× TBE: 89 mM Tris base, 89 mM boric acid, 2 mM EDTA) on a non-denaturing 4.5% polyacrylamide gel at 200 V. The gels were dried and directly analyzed in the PhosphorImager (Molecular Dynamics, Sunnyvale, Calif.).
# (§2) Nuclear protein extracts were prepared by methods known in the art. […] Briefly, samples of pancreatic tissue or isolated acini were rinsed in ice-cold PBS and homogenized in hypotonic Buffer A (20 mM β-glycerophosphate, 10 mM HEPES, pH 7.6, 1.5 mM MgCl2, 10 mM KCl, 10 mM Na2MoO4, 0.1 mM Na3VO4, 1 mM dithiothreitol (DTT), 1 mM phenylmethylsulfonyl fluoride (PMSF), 5 μg/ml each of protease inhibitors pepstatin, leupeptin, chymostatin, antipain and aprotinin). After incubating on ice for about 20 to about 25 minutes, the nonionic detergent Igepal CA-630 (Sigma, St. Louis, Mo.) was added to a final concentration of 0.3 to 0.4% (v/v), followed by an additional incubation on ice for about 1 to about 2 minutes. The crude nuclear pellet was collected by microcentrifugation for 30 seconds. The supernatant (cytosolic protein) was removed, and the nuclear pellet was resuspended in the high-salt buffer C (25% glycerol, 20 mM β-glycerophosphate, 10 mM HEPES, 1.5 mM MgCl2, 420 mM NaCl, 0.2 mM EDTA, 10 mM Na2MoO4, 0.1 mM Na3VO4, 1 mM DTT, 1 mM PMSF, 5 μg/ml each of protease inhibitors pepstatin, leupeptin, chymostatin, antipain and aprotinin. After rotating at 4° C. for up to 1 hour, nuclear membranes were pelleted by microcentrifugation for 10 minutes, and the clear supernatant (nuclear extract) was aliquoted and stored at −80° C. Protein concentration in the nuclear extract was determined by the Bio-Rad protein assay (Bio-Rad Laboratories, Hercules, Calif.).
# CCK receptor = target: T1, CCK receptor (Rattus norvegicus, UniProt P30551); test: In vivo pancreatic secretion assay
# T1 construct: from tissue; host or cells: living rat, pancreas (acinar cells)
# T1 sequence (P30551 1-444): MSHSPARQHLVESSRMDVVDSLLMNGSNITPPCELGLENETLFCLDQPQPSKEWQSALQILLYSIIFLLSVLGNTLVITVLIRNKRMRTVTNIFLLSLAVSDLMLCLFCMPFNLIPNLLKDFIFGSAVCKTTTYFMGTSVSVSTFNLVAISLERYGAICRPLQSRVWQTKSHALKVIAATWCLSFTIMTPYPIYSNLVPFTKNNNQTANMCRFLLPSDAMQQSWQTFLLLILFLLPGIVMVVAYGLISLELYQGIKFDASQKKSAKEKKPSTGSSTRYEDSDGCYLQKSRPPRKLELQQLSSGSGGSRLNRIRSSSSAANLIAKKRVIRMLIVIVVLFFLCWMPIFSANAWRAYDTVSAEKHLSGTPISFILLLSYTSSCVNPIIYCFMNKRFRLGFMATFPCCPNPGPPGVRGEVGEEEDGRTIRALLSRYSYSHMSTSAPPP
# Experimental: To rule out the possibility that the effect of curcumin was through inhibition of the action of cerulein or CCK-8 on CCK receptor activation, the effect of pancreatic secretion was tested.
# Pancreatic secretion in test rats was measured in vivo by methods known in the art. See Gukovskaya A S, et al. (2002). Briefly, biliopancreatic secretion was allowed to drain freely for 30 minutes before initiation of the experiment. Then secretion was collected in tubes in 10-minute fractions to determine the basal amylase output, after which 0.25 μg/kg cerulein was given as an i.v. bolus and collection continued for 40 minutes in a similar manner. Collection volumes were measured by weigh, and the amylase output was calculated by determining amylase concentration in the collected fractions. The mean amylase output obtained from two consecutive 10-minute fractions after the stabilization period was taken as the basal secretion and considered as 100%. The results were expressed as percentage increase over basal amylase output 40 minutes after cerulein or vehicle infusion.
# NF-κB and AP-1 = conditions: various cell types and tissues; cited from earlier work
# [5] = system: IL-6, TNF-α, KC and iNOS mRNA; test: RT-PCR for pancreatic mRNA expression of inflammatory molecules; type: in vivo; conditions: rat
# Experimental: To determine whether the effects of curcumin on NF-κB and AP-1 activation translated into changes in the expression of inflammatory molecules, the effect of curcumin on pancreatic mRNA expression of several cytokines and other inflammatory molecules were measured by methods known in the art. See Blinman T A, et al. (2000); Gukovskaya A S, et al. (1999); Gukovsky I, et al. (1998); Pandol S J, et al. (1999); Vaquero E, et al. (2001); and Zaninovic V, et al. (2000). Briefly, total RNA was obtained from pancreatic tissue with TRI reagent (Molecular Research Center, Cincinnati, Ohio) and its quality was verified by ethidium bromide staining of rRNA bands on a denaturing agarose gel. RNA was reverse-transcribed with the SuperScript II preamplification kit (GIBCO-BRL, Rockville, Md.) and subjected to PCR with the rat gene specific, intron-spanning primers set forth in Target sequences were amplified at 56° C. using the same amount of cDNA for all primer sets. The RT-PCR products were all of expected size, and their identity was confirmed by direct sequencing. Negative controls were performed by omitting the RT step or cDNA template from the PCR amplification. The cycle number was adjusted between 22 (for the housekeeping ARP gene) and 36 cycles (for iNOS) in order to yield visible products within the linear amplification range. […]
# IκBα and IκBβ = test: Western blot of IκBα and IκBβ in cytosolic extracts from pancreatic tissue; type: in vivo, rat
# Experimental: IκBα and IκBβ levels were measured in cytosolic protein extracts from pancreatic tissue, prepared according to Example 12, by Western blot analysis using polyclonal antibodies sc-371 and sc-945, respectively (Santa Cruz Biotechnology, Santa Cruz, Calif.) using methods known in the art. […] Specifically, IκBα and IκBβ levels were measured in cytosolic protein extracts from pancreatic tissue by Western blot analysis using polyclonal antibodies sc-371 and sc-945, respectively (Santa Cruz Biotechnology, Santa Cruz, Calif.). […] Specifically, proteins in the cytosolic extract were separated by SDS-PAGE at 120 V using precast Tris-glycine gels and Mini-Cell gel apparatus (Novex, San Diego, Calif.). Separated proteins were electrophoretically transferred to polyvinylidene difluoride membrane for 2 hours at 30 V, using a Novex blot module. Nonspecific binding was blocked by overnight incubation of the membrane in 5% (wt/vol) nonfat dry milk in Tris-buffered saline (TBS, pH 7.5). Blots were then incubated for 2 hours at room temperature with primary antibodies in antibody buffer containing 1% (wt/vol) nonfat dry milk in TTBS (0.05% vol/vol Tween 20 in TBS), washed three times with TTBS, and finally incubated for 1 hour with a peroxidase-labeled secondary antibody in the antibody buffer. Blots were developed for visualization using enhanced chemiluminescence detection kit (Pierce Chemical, Rockford, Ill.).
# NF-κB [6] = test: EMSA for NF-κB on nuclear extracts from pancreatic tissue; type: in vivo, rat; conditions: for NF-κB activation in the pancreas: rat
# Experimental: Specifically, aliquots of nuclear extracts with equal amounts of protein (about 2 to about 10 mg) were mixed in 20 μl reactions with a buffer containing 10 mM HEPES (pH 7.8), 50 mM KCl, 0.1 mM EDTA, 1 mM DTT, 10% (vol/vol) glycerol, and 3 μg of poly(dI-dC).
# as §1, §2
# pancreatic acinar cells = test: LDH release from pancreatic acinar cells; type: cell-based, rat; conditions: 100 μM curcumin, control acinar cells or cells stimulated with 100 nM CCK-8
smiles,measurement,setting,value
COc1cc(/C=C/C(=O)CC(=O)/C=C/c2ccc(O)c(OC)c2)ccc1O [curcumin],inhibition of NF-κB activation in CCK-stimulated acinar cells,NF-κB [1],very little inhibition
same,CCK-induced activation of AP-1 in isolated acinar cells,"AP-1 [2]; 1 h with compound, then 0.1 μM CCK 30 min",inhibits; also recorded: abolished; also recorded: blocked; also recorded: attenuates
same,basal AP-1 binding activity in acinar cells,AP-1 [2]; isolated acinar cells without CCK,inhibited
same,inhibition of neutrophil infiltration in the pancreas,[3]; cerulein pancreatitis,greater than 50%
same,neutrophil infiltration versus pancreatitis without curcumin,[3]; cerulein pancreatitis,significantly lower; also recorded: significantly inhibited
same,inhibition of neutrophil infiltration in the pancreas,[3]; ethanol/CCK pancreatitis,greater than 50%
same,neutrophil infiltration versus pancreatitis without curcumin,[3]; ethanol/CCK pancreatitis,significantly lower; also recorded: significantly inhibited
same,AP-1 activation in the pancreas,AP-1 [4]; cerulein pancreatitis,markedly attenuated; also recorded: inhibited
same,AP-1 activation in the pancreas,AP-1 [4]; ethanol/CCK pancreatitis,almost completely blocked; also recorded: inhibited
same,effect on cerulein/CCK-induced pancreatic secretion in vivo,"CCK receptor; rat, versus without curcumin",not statistically different; also recorded: did not appear to have an effect
same,"cerulein-induced amylase secretion, of the basal amylase output","CCK receptor; rats treated with curcumin, 0.25 μg/kg cerulein i.v. bolus, 40 min, n=4",1000±37%
same,activation of NF-κB and AP-1,NF-κB and AP-1,inhibits
same,"pancreatic expression of IL-6, TNF-α, KC and iNOS",[5]; cerulein pancreatitis,markedly inhibited; also recorded: attenuated
same,"pancreatic expression of IL-6, TNF-α, KC and iNOS",[5]; ethanol/CCK pancreatitis,markedly inhibited; also recorded: attenuated
same,decrease (degradation) of IκBα and IκBβ,"IκBα and IκBβ; cerulein pancreatitis, rat",prevented
same,IκBα and IκBβ levels in control animals,IκBα and IκBβ; control animals,did not change
same,IκB degradation,"IκBα and IκBβ; ethanol/CCK pancreatitis, rat",prevented; also recorded: inhibits
same,NF-κB activation in the pancreas,NF-κB [6]; cerulein pancreatitis,inhibits; also recorded: attenuated
same,NF-κB activity in the pancreas of control rats,NF-κB [6]; control (vehicle-infused) rats treated with curcumin,Virtually no NF-κB activity was detected
same,NF-κB activation in the pancreas,NF-κB [6]; ethanol/CCK pancreatitis,inhibits
same,LDH release,pancreatic acinar cells,did not cause additional LDH release
